In patent publication US5422373A, “Anti-atherosclerotic aryl compounds” (Burroughs Wellcome Co., priority 1990, dated 1995):

What was measured:
[1] = system: cholesterol-cholic acid fed rats; test: Determination of hypolipidaemic activity in cholesterol-cholic acid fed rats; type: in vivo, rat; conditions: male Sprague-Dawley rats on 0.4% cholesterol, 0.2% cholic acid diet, serum on fourth day
From the text: (ii) Determination of hypolipidaemic activity in cholesterol-cholic acid fed rats
Male Sprague-Dawley rats (CD, Charles River) each weighing 200-300 g were used. Hypercholesterolemia was induced in the rats by administration of a diet enriched to 0.4% cholesterol, 0.2% cholic acid. Prior to the administration of the diet, blood samples were collected under halothane anesthesia by cardiac puncture to determine baseline lipid levels. The blood was allowed to clot and serum was obtained for the analysis of total cholesterol, dextran-precipitable lipoproteins cholesterol (VLDL +LDL) and total triglycerides. The rats were divided into groups so that each group had similar average baseline serum lipid levels. Five days after the initial blood sampling, administration of each test compound and the cholesterol-cholic acid-enriched diet was begun. Compounds to be tested by gavage were administered b.i.d. in 0.5% methyl cellulose at 9:00 a.m. and 3:00 p.m. for three days and at 9:00 a.m. on the fourth day. Compounds administered as part of the diet were dissolved in ethanol and sprayed on to the diet. The ethanol was allowed to evaporate and the diet given to the rats for three days. On the fourth day, blood samples were collected and the final serum lipid levels determined. All blood samplings were taken after a four-hour fast. […]

ACAT = target: T1, ACAT (Rattus norvegicus, UniProt Q7TQM4); test: In vitro assay for the inhibition of ACAT activity; type: biochemical; conditions: hepatic microsomes of cholesterol/cholic acid fed male CD rats; [14C]oleoyl-CoA 25 μM
T1 construct: using hepatic microsomes as the source of both ACAT and cholesterol; from tissue; host or cells: liver microsomes of male CD rats fed a 0.8% cholesterol/0.2% cholic acid diet
T1 sequence (Q7TQM4 1-524): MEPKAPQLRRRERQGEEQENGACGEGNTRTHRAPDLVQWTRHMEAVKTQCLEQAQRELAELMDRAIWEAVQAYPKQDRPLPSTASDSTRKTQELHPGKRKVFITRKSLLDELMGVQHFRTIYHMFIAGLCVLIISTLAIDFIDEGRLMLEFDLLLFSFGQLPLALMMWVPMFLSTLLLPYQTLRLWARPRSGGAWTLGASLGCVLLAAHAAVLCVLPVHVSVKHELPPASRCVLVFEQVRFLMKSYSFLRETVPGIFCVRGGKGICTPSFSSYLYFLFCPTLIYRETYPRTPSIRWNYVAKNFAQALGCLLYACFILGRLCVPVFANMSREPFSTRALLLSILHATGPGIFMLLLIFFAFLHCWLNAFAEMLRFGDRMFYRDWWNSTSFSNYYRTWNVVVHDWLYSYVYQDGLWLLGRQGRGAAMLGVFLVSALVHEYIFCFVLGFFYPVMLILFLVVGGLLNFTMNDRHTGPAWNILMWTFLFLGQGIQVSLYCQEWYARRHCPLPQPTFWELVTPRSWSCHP
Method: (i) In vitro assay for the inhibition of ACAT activity
ACAT activity was determined as described by Ross et al by the incorporation of [^14 C]oleoyl-CoA into cholesterol [^14 C]oleate using hepatic microsomes as the source of both ACAT and cholesterol. Microsomes were prepared from the livers of male CD rats fed a 0.8% cholesterol/0.2% cholic acid diet 3.5 days before sacrifice. Various concentrations of a test compound were preincubated with a 0.5mg/ml microsomal suspension and after 15 minutes a 50 μg aliquot was removed and incubated with 25 μM of [^14 C]-enriched oleoyl-CoA for 4 minutes. The reaction was terminated by the addition of 1 ml of ethanol and 4ml of hexane. After shaking, the hexane layer was removed and evaporated to dryness. The hexane extract was then reconstituted in 150 μl of HPLC solvent and injected on to a B&J OD5 Reverse Phase C18 column using an isocratic mobile phase of acetonitrile: isopropanol:heptane (50:40:10) in 0.5% acetic acid at a flow rate of 1.0 ml/min. The product of the reaction, [14C]oleoyl cholesterol, was measured using a Flow One radiometric detector.
The ACAT IC50 value for each compound was determined from a plot of % inhibition from control vs inhibitor concentration.

IC50 (ACAT): 27 nM
Compound: CCCCCCCN(Cc1ccc(OCC(OC)OC)cc1)C(=O)Nc1ccc(OC)cc1OC [Synthetic Example 1]
reduction of LDL-cholesterol ([1]; dose of 25 mg/kg): 78% | reduction of LDL-cholesterol ([1]; dose of 50 mg/kg): 92%
